Assay results from ChEMBL document CHEMBL5696442, “Discovery of type II inhibitors of TGFβ-activated kinase 1 (TAK1) and mitogen-activated protein kinase kinase kinase kinase 2 (MAP4K2)” (J Med Chem, 2015).
Calls of active or inactive are those of the source. The calls are words filed in the database; no cut-off is given here.

Columns and labels:
[1] = biological target: STE20-like serine/threonine-protein kinase (Homo sapiens) (UniProt Q9H2G2); assay: Inhibition of SLK K1 labeling site in human Huh-7 cells at 1 uM by KiNativ Profiling analysis relative to control; format: cell-based
[2] = biological target: Calcium/calmodulin-dependent protein kinase type 1G (Homo sapiens) (UniProt Q96NX5); assay: Inhibition of CAMK1G (unknown origin) at 10 uM by Ambit Kinomescan binding assay relative to control
[3] = biological target: Maternal embryonic leucine zipper kinase (Homo sapiens) (UniProt Q14680); assay: Inhibition of MELK (unknown origin) at 10 uM by Ambit Kinomescan binding assay
Chain of Maternal embryonic leucine zipper kinase (Homo sapiens) (Q14680 whole entry, looked up): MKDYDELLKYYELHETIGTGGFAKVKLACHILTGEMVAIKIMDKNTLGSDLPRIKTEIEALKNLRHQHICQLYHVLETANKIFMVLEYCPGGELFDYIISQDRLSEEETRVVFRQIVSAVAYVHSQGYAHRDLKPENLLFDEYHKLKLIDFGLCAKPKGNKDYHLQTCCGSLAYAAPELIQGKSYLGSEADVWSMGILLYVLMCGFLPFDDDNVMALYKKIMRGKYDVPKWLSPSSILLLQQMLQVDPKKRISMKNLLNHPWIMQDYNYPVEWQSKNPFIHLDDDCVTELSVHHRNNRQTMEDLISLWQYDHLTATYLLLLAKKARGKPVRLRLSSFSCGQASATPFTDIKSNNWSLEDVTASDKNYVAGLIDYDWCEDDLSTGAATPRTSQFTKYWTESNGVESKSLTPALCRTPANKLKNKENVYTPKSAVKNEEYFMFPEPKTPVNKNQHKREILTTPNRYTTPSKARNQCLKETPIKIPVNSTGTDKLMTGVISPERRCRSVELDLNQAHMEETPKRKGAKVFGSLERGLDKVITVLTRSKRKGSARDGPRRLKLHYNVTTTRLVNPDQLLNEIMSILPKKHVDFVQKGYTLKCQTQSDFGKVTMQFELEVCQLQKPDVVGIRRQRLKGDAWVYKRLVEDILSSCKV

[4] = biological target: Non-receptor tyrosine-protein kinase TNK1 (Homo sapiens) (UniProt Q13470); assay: Inhibition of TNK1 (unknown origin) at 10 uM by Ambit Kinomescan binding assay relative to control; values are per cent of control
293-IL-1R = assay: Inhibition of IL-1alpha induced p105 phosphorylation level in human 293-IL-1R cells preincubated for 1 hr followed by IL-1 alpha stimulation and measured after 30 mins by Western blot analysis; format: functional, cell-based; settings: dose 0.01-10 µM
[5] = biological target: Serine/threonine-protein kinase RIO2 (Homo sapiens) (UniProt Q9BVS4); assay: Inhibition of RIOK2 (unknown origin) at 10 uM by Ambit Kinomescan binding assay
[6] = biological target: Tyrosine-protein kinase Mer (Homo sapiens) (UniProt Q12866); assay: Inhibition of MERTK (unknown origin) at 10 uM by Ambit Kinomescan binding assay
Chain of Tyrosine-protein kinase Mer (Homo sapiens) (Q12866 whole entry): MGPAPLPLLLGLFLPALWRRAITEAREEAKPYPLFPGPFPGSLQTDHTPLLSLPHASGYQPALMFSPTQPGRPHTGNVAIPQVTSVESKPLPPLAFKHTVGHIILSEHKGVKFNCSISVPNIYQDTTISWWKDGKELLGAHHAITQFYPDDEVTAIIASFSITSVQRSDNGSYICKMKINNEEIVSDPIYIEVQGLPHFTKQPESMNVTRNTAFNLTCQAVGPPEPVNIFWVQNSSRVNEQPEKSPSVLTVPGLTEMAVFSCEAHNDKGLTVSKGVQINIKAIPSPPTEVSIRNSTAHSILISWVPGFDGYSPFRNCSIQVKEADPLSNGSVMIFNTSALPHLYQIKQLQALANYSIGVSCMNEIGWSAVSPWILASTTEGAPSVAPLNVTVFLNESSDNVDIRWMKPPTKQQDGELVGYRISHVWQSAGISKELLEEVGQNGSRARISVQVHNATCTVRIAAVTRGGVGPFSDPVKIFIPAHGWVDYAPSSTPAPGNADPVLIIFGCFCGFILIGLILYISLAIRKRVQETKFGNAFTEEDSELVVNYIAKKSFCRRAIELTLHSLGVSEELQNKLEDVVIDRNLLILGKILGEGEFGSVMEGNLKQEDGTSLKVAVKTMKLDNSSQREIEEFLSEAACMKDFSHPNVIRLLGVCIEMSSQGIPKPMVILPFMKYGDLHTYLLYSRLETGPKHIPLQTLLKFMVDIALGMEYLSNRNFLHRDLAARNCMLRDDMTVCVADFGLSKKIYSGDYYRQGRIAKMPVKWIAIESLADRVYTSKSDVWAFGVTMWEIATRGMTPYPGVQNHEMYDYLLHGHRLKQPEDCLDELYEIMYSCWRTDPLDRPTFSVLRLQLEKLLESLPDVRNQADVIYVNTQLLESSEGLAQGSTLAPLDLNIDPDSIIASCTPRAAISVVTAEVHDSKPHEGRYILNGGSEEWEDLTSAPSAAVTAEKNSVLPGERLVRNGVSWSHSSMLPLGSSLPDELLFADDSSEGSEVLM

[7] = biological target: T1, Eukaryotic elongation factor 2 kinase (Homo sapiens) (UniProt O00418); assay: Inhibition of eEF2K ATP labeling site harbouring YIKYNSNSGFVRDDNIR in human A-375 cells at 0.5 uM by KiNativ Profiling analysis relative to control; format: cell-based
T1 sequence (whole entry): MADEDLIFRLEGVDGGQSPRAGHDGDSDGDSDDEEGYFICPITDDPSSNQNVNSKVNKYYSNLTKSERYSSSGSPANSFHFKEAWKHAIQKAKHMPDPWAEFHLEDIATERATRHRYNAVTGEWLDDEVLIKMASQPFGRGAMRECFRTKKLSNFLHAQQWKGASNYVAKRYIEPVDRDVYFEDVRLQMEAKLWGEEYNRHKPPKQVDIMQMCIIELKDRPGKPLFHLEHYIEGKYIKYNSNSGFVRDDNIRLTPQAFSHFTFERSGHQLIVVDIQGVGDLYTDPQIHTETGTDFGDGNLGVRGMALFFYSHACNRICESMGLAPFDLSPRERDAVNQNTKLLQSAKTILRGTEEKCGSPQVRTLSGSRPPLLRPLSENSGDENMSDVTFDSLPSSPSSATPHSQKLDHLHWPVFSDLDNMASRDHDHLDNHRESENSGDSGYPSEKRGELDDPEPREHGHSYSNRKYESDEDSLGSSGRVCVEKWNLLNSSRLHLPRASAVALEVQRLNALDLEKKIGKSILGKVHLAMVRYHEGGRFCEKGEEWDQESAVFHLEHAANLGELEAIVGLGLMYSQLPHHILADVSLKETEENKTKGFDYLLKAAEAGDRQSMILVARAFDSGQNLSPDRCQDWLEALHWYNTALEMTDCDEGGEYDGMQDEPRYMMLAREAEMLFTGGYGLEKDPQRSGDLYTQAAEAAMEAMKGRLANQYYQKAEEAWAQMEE

[8] = biological target: Vascular endothelial growth factor receptor 2 (Homo sapiens) (UniProt P35968); assay: Inhibition of VEGFR2 (unknown origin) at 1 uM by Ambit Kinomescan binding assay relative to control
Chain of Vascular endothelial growth factor receptor 2 (Homo sapiens) (P35968 whole entry): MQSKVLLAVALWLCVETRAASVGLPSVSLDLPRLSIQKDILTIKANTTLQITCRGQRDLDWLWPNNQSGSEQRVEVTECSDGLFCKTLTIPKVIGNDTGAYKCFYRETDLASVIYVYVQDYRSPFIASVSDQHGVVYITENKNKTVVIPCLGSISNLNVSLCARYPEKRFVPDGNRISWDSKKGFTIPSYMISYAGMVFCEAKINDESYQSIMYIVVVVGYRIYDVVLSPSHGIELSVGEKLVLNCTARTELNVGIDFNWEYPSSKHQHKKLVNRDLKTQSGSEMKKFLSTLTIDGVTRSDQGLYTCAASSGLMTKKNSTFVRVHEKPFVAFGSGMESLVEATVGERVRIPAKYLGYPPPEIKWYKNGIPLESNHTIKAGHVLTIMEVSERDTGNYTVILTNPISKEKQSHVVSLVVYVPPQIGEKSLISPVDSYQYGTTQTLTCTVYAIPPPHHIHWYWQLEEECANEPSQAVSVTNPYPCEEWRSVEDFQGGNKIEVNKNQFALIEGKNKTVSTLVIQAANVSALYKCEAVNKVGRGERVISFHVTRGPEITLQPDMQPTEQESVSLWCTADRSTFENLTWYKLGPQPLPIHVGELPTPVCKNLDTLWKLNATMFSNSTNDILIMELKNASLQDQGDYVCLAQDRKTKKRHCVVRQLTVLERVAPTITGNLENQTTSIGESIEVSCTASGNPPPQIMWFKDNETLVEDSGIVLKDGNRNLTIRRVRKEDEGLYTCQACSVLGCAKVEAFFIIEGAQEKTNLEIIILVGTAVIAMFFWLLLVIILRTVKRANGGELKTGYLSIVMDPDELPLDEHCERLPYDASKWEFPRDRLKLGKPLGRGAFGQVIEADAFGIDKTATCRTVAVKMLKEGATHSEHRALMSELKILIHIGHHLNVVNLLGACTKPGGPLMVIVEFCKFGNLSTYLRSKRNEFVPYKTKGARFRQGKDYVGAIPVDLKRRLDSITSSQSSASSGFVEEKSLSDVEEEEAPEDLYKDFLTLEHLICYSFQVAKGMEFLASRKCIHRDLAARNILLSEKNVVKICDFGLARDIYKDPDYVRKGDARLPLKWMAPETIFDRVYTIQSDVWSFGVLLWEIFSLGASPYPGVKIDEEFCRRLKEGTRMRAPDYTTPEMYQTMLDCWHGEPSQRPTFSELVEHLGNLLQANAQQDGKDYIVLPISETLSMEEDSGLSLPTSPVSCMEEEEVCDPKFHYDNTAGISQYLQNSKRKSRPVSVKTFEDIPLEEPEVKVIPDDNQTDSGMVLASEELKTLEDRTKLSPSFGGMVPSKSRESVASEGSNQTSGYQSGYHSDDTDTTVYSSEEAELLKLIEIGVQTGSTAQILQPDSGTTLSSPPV

Ephrin type-A receptor 2 = Ephrin type-A receptor 2 (Homo sapiens, UniProt P29317); assay: Inhibition of EPHA2 (unknown origin) at 1 uM by Ambit Kinomescan binding assay relative to control
Chain of Ephrin type-A receptor 2 (P29317 whole entry): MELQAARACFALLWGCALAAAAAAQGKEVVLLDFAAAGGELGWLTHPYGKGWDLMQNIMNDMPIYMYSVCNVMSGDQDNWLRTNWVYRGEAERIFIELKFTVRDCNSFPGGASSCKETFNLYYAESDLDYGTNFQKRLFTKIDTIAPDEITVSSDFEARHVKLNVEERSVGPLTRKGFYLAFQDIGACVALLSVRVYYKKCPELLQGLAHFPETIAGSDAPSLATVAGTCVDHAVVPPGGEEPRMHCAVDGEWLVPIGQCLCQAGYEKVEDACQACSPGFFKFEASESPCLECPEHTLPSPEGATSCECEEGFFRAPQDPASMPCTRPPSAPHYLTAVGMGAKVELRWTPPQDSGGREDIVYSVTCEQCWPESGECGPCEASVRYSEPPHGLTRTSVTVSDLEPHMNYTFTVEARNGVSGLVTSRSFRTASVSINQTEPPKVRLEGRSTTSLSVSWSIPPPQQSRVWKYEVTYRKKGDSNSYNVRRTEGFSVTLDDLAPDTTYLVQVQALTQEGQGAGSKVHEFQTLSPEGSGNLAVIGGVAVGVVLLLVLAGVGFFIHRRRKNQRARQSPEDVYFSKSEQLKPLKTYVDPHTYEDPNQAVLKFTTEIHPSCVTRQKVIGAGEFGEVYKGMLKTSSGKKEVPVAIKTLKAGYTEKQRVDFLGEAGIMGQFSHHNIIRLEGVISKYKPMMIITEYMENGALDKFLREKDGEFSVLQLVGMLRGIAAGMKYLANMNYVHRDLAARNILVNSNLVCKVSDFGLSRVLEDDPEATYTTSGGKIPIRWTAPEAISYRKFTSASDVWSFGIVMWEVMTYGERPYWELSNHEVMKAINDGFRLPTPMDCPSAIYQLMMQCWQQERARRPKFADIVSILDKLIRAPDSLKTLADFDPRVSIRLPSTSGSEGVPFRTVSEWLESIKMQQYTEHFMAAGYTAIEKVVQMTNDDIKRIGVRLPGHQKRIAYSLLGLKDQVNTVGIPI

[9] = biological target: T2, Dual specificity mitogen-activated protein kinase kinase 7 (Homo sapiens) (UniProt O14733); assay: Inhibition of MAP2K7 Lys2 labeling site in human A-375 cells at 5 uM by KiNativ Profiling analysis relative to control; format: cell-based
T2 sequence (whole entry): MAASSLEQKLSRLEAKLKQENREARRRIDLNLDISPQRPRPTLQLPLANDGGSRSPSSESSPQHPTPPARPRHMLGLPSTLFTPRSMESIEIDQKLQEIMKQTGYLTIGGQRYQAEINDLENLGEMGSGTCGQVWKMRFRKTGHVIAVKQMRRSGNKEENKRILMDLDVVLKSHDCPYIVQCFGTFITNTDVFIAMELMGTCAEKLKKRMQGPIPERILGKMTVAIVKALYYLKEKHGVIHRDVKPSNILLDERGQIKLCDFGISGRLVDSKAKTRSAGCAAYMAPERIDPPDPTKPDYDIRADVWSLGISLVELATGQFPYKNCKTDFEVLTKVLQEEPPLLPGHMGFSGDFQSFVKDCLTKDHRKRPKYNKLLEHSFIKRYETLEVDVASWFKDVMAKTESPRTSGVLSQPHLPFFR

[10] = biological target: Serine/threonine-protein kinase 10 (Homo sapiens) (UniProt O94804); assay: Inhibition of LOK Lys2 labeling site in human A-375 cells at 5 uM by KiNativ Profiling analysis relative to control; format: cell-based
Chain of Serine/threonine-protein kinase 10 (Homo sapiens) (O94804 whole entry, looked up): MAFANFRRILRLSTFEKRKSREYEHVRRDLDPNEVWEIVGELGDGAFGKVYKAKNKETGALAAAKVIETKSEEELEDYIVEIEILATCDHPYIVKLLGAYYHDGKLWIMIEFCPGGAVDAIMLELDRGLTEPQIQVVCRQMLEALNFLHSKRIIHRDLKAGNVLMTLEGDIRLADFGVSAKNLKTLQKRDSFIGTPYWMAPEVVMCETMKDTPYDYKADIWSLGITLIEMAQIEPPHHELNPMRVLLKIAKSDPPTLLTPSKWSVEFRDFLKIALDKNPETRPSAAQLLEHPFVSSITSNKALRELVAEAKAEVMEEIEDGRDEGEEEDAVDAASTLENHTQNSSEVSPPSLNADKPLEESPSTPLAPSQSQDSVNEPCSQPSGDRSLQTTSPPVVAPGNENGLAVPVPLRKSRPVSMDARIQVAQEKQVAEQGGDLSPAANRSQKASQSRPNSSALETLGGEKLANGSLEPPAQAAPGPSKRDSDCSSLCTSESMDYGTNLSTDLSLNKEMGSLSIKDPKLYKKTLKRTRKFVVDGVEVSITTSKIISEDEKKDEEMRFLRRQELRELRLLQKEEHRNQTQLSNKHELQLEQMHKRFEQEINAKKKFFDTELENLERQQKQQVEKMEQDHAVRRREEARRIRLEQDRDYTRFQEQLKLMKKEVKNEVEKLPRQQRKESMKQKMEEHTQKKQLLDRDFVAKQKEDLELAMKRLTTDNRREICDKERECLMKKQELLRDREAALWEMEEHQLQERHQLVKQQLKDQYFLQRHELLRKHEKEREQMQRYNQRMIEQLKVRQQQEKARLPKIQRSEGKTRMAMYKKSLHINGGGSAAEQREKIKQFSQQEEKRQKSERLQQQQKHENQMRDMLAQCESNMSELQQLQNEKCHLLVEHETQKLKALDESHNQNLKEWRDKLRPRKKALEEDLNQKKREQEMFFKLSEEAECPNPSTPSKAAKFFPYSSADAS

[11] = biological target: Serine/threonine-protein kinase VRK2 (Homo sapiens) (UniProt Q86Y07); assay: Inhibition of VRK2 Lys2 labeling site in human Huh-7 cells at 1 uM by KiNativ Profiling analysis relative to control; format: cell-based

Compound: CCN1CCN(Cc2ccc(NC(=O)c3ccc(C)c(Oc4ccnc5[nH]ccc45)c3)cc2C(F)(F)F)CC1
- inhibition [1]: 3.5%
- inhibition [2]: 20%
- inhibition [3]: inactive
- residual activity [4]: 0.35%
- inhibition (293-IL-1R): Dose-Dependent Effect
- inhibition [5]: inactive
- inhibition [6]: inactive
- inhibition [7]: 0.1%

Compound: CCN1CCN(Cc2ccc(NC(=O)c3ccc(C)c(/C=C/c4cnc5[nH]ccc5c4OC)c3)cc2C(F)(F)F)CC1
- inhibition [8]: 14%
- percent of control (Ephrin type-A receptor 2): 1.2%
- inhibition [9]: 57%
- inhibition [10]: 77.4%

Compound: CNc1cc(Oc2cc(C(=O)Nc3cc(N4CCN(C)CC4)cc(C(F)(F)F)c3)ccc2C)ncn1
- inhibition [11]: 40.4%
